The results in this text go back to PubChem BioAssay (NCI).

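A five-concentration, 48-hour dose response in 96-well plates underlies each endpoint, interpolated linearly between surrounding concentrations. TGI marks complete inhibition of growth.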

Among the test systems are CAKI-1 renal; HS 578T breast; DU-145 prostate; SNB-19 CNS; T-47D breast; MDA-MB-231 breast; 786-0 renal; MCF7 breast; A498 renal; PC-3 prostate; RPMI-8226 leukemia; HL-60(TB) leukemia; SK-OV-3 ovarian; OVCAR-3 ovarian; BT-549 breast; RXF 393 renal; NCI-H226 lung; HOP-92 NSCLC; SNB-75 CNS.
Holding throughout (assay): growth of human tumour cells (NCI), 48 h

Take `Cc1cc(S(=O)(=O)NC(=C(C#N)C#N)[n+]2ccc(N(C)C)cc2)c([S-])cc1Cl`: the TGI with CAKI-1 renal, in the experiment on HS 578T breast, in the experiment with DU-145 prostate, with SNB-19 CNS, in the experiment on T-47D breast and in the experiment with MDA-MB-231 breast was greater than 100 µM throughout. Moreover, the TGI with 786-0 renal, with MCF7 breast, in the experiment on A498 renal, with PC-3 prostate, in the experiment on RPMI-8226 leukemia and with HL-60(TB) leukemia was greater than 100 µM in each case. Besides, the TGI in the experiment with SK-OV-3 ovarian, with OVCAR-3 ovarian, with BT-549 breast, in the experiment on RXF 393 renal, in the experiment with NCI-H226 lung and in the experiment on HOP-92 NSCLC was greater than 100 µM in each case.
On to `CNC1C(O)C(NC)C2OC3(O)C(=O)CC(C)OC3OC2C1O` (centres undefined), for which the TGI with CAKI-1 renal, with HS 578T breast, in the experiment with DU-145 prostate, with SNB-19 CNS, in the experiment with T-47D breast and with MDA-MB-231 breast was greater than 100 µM throughout. In addition, the TGI with 786-0 renal, in the experiment with MCF7 breast, with PC-3 prostate, in the experiment on RPMI-8226 leukemia, in the experiment on HL-60(TB) leukemia and in the experiment with SNB-75 CNS was greater than 100 µM throughout. Moreover, the TGI with SK-OV-3 ovarian, in the experiment on OVCAR-3 ovarian, in the experiment on BT-549 breast, with RXF 393 renal, with NCI-H226 lung and in the experiment on HOP-92 NSCLC was greater than 100 µM throughout.
`Cc1cccc(O)c1-c1nnc(CCCCCCCCc2nnc(-c3c(C)cccc3O)n2N)n1N`: the TGI with CAKI-1 renal, in the experiment on HS 578T breast, in the experiment on DU-145 prostate, in the experiment with SNB-19 CNS, in the experiment on T-47D breast and in the experiment on MDA-MB-231 breast was greater than 100 µM in each case. For the same compound, the TGI in the experiment on MCF7 breast is greater than 100 µM; in the experiment with A498 renal it was greater than 100 µM; with PC-3 prostate it was greater than 100 µM; in the experiment on RPMI-8226 leukemia, greater than 100 µM; in the experiment on HL-60(TB) leukemia it was greater than 100 µM; in the experiment on SNB-75 CNS, greater than 58.1 µM. Further, the TGI was greater than 100 µM with SK-OV-3 ovarian; greater than 100 µM in the experiment on OVCAR-3 ovarian; greater than 100 µM in the experiment with BT-549 breast; greater than 100 µM with NCI-H226 lung; greater than 31.6 µM in the experiment on HOP-92 NSCLC.
Turning to `Cc1ccc(S(=O)(=O)N2c3ccccc3[C@H]3CCc4c([nH]c5ccccc45)[C@H]32)cc1`, the TGI in the experiment with CAKI-1 renal, with DU-145 prostate, with SNB-19 CNS, in the experiment with T-47D breast, with MDA-MB-231 breast and in the experiment on MCF7 breast was greater than 100 µM in each case. Besides, the TGI in the experiment on PC-3 prostate, with RPMI-8226 leukemia, with SNB-75 CNS, in the experiment with SK-OV-3 ovarian, with OVCAR-3 ovarian and in the experiment with BT-549 breast was greater than 100 µM in each case. Also, the TGI in the experiment on RXF 393 renal, with NCI-H226 lung and in the experiment on HOP-92 NSCLC was greater than 100 µM each time.
As for `C1CCC(OCc2nnn3c2CCC3)OC1` (centres undefined), the TGI with HL-60(TB) leukemia, in the experiment on SNB-75 CNS, with SK-OV-3 ovarian, in the experiment with OVCAR-3 ovarian, with RXF 393 renal and with HOP-92 NSCLC was greater than 100 µM each time.
As to `C[C@H]1C(=O)O[C@@H]1[C@H]1COC(C)(C)O1`, the TGI in the experiment on CAKI-1 renal, with SNB-19 CNS, in the experiment with MDA-MB-231 breast, in the experiment on MCF7 breast, in the experiment with A498 renal and in the experiment with PC-3 prostate was greater than 100 µM throughout. In addition, the TGI in the experiment on RPMI-8226 leukemia, in the experiment on HL-60(TB) leukemia, in the experiment with SNB-75 CNS, in the experiment with SK-OV-3 ovarian, in the experiment on OVCAR-3 ovarian and in the experiment on BT-549 breast was greater than 100 µM throughout. In addition, the TGI in the experiment on RXF 393 renal, in the experiment with NCI-H226 lung and in the experiment on HOP-92 NSCLC was greater than 100 µM in each case.
Consider `CC(C)OC(=O)Nc1cccc(Cl)c1`, for which the TGI in the experiment on CAKI-1 renal, with HS 578T breast, in the experiment on DU-145 prostate, with SNB-19 CNS, in the experiment on T-47D breast and in the experiment with MDA-MB-231 breast was greater than 100 µM each time. Further, the TGI with 786-0 renal, in the experiment on MCF7 breast, with PC-3 prostate, with RPMI-8226 leukemia, in the experiment on HL-60(TB) leukemia and with SNB-75 CNS was greater than 100 µM throughout. For the same compound, the TGI with SK-OV-3 ovarian, in the experiment on OVCAR-3 ovarian, in the experiment with BT-549 breast, in the experiment with RXF 393 renal, in the experiment with NCI-H226 lung and in the experiment with HOP-92 NSCLC was greater than 100 µM in each case.
Consider `CS/C(C#N)=C(\C#N)SC`, for which the TGI with CAKI-1 renal is 22.3 µM; in the experiment on HS 578T breast, greater than 100 µM; with DU-145 prostate, 40.7 µM; in the experiment on SNB-19 CNS, 65.9 µM; in the experiment with T-47D breast it was 26.2 µM; with MDA-MB-231 breast, 89.6 µM. For the same compound, the TGI was greater than 100 µM with 786-0 renal; 12.3 µM with MCF7 breast; 47.7 µM with A498 renal; 62.2 µM in the experiment on PC-3 prostate; greater than 100 µM with RPMI-8226 leukemia; 6.39 µM with HL-60(TB) leukemia. The TGI is greater than 100 µM with SNB-75 CNS, 4.88 µM with OVCAR-3 ovarian, 5.11 µM with RXF 393 renal and 5.92 µM in the experiment with NCI-H226 lung.
Regarding `CCN1CCN(c2nc3ccccc3nc2C(=O)c2ccc(OC)cc2)CC1`, the TGI was greater than 100 µM with CAKI-1 renal; greater than 100 µM in the experiment on HS 578T breast; greater than 100 µM in the experiment with DU-145 prostate; greater than 100 µM in the experiment with SNB-19 CNS; greater than 100 µM in the experiment with T-47D breast; 64.8 µM in the experiment on 786-0 renal. Moreover, the TGI with MCF7 breast is 58.8 µM; in the experiment with A498 renal it was greater than 100 µM; with PC-3 prostate it was greater than 100 µM; in the experiment with RPMI-8226 leukemia it was 43.7 µM; in the experiment on HL-60(TB) leukemia it was greater than 100 µM; in the experiment with SNB-75 CNS, greater than 100 µM. Further, the TGI is greater than 100 µM in the experiment on SK-OV-3 ovarian, greater than 100 µM in the experiment with OVCAR-3 ovarian, 43.5 µM with RXF 393 renal and greater than 100 µM with HOP-92 NSCLC.
